Test results: article PMC3965624 (Life sciences, 2014)

Molecular target: NTSR1 (Homo sapiens, UniProt P30989)
Assay: […]-Tyr3-NTS radioligand displacement on intact NCI-H1299 cells
Type: cell-based

Chain of NTSR1 (P30989 whole entry): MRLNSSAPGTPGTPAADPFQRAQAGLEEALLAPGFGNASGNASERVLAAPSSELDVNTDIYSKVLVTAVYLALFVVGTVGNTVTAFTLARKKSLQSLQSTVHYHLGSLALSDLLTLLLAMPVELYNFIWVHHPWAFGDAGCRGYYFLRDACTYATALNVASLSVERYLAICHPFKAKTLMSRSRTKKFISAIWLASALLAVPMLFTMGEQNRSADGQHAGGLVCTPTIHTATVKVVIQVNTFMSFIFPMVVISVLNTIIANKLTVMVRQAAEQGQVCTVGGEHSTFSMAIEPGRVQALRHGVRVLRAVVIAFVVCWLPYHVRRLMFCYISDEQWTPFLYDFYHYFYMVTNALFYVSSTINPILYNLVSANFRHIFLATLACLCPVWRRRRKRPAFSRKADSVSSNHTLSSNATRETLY

`COc1cccc(OC)c1-c1cc(C(=O)NC2(C(=O)O)C3CC4CC(C3)CC2C4)nn1-c1ccnc2cc(Cl)ccc12` (stereo not shown) [SR48692] showed an IC50 of 205 nM.
